pIC50: −log10 of the molar value.
Assays:
prostate cancer = settings: Phase 2 human clinical trial, prostate cancer patients; cited from earlier work
prostate cancer cells = experiment: MTT cell viability assay, prostate cancer cells; settings: 10-3000 nM, 48 hours, PC3, DU145, LNCaP
PKC = settings: read-out: IC50 PKC; cited from earlier work
gastric cancer cells = experiment: MTT cell viability assay, gastric cancer cells; settings: 10-3000 nM, 48 hours, AGS, MKN-45, Hs746T, NCI-N87
PRK1 = experiment: Western blot of PRK1 protein expression in prostate cancer cell lines; settings: LNCaP, PC3 and DU145 cells (any of the tested cell lines), 1 μM, 6 hours
SRC3 = experiment: Western blot of SRC3 protein levels in prostate, breast and gastric cancer cells, 24 hours, two doses; settings: for SRC3 protein levels: two doses
DEK = experiment: Western blot of DEK protein levels in prostate, breast and gastric cancer cells, 24 hours, two doses; settings: gastric cancer cells (MKN-45 and NCI-N87)
SRC-3 [1] = experiment: Subcellular fractionation and Western blot of SRC-3 in nucleus and cytoplasm; type: cell-based; settings: 1000 nM, 6 hours
Text: (§1) Ponceau S was used to stain proteins.
(§2) Nuclear and cytosolic fractions were obtained and analyzed by western blot. Antibodies used include SRC-3, PRK, tubulin, histone-H3, and actin.

SRC-3 [2] = experiment: Western blot of SRC-3 protein expression in prostate cancer cell lines; type: cell-based; settings: 1 μM, 6 hours
Text: as §1

PRK-1 = experiment: Subcellular fractionation and Western blot of PRK-1 in nucleus and cytoplasm; type: cell-based; settings: 6 hours
Text: as §1, §2

Compound: C[C@]12O[C@H](C[C@]1(O)CO)n1c3ccccc3c3c4c(c5c6ccccc6n2c5c31)CNC4=O [lestaurtinib]
- primary clinical endpoint of reduced PSA levels (prostate cancer): failed to achieve the primary clinical endpoint of reduced PSA levels
- viability of prostate cancer cells (prostate cancer cells): effective in reducing viability
- pIC50 (PKC): 6.65
- viability of gastric cancer cells (gastric cancer cells): effective in reducing viability
- PRK1 protein expression level (PRK1): not significantly altered
- SRC3 protein levels (SRC3; MCF7 breast cancer cells): most profound dose-dependent decrease
- SRC3 expression levels (SRC3; MKN-45 gastric cancer cells, higher dose): showed a decrease
- SRC3 protein levels (SRC3; ZR75-1 breast cancer cells): no obvious change
- DEK levels (DEK): did not change
- reduction in cytoplasmic SRC-3, LNCaP compared to PC3 or DU145 (SRC-3 [1]; LNCaP cells): much more dramatic
- nuclear SRC-3 protein levels (SRC-3 [1]; LNCaP, DU145 or PC3 cells): did not caused a reduction
- SRC-3 protein in the cytoplasm (SRC-3 [1]; all three cell lines (LNCaP, PC3, DU145)): reduced
- SRC-3 protein expression level (SRC-3 [2]; DU145 cells): not significantly altered
- SRC-3 protein expression level (SRC-3 [2]; LNCaP cells): profound decrease
- SRC-3 protein expression level (SRC-3 [2]; PC3 cells): not significantly altered
- cytoplasmic PRK-1 levels (PRK-1; LNCaP, PC3, DU145, 1000 nM): unaltered
- nuclear PRK-1 protein levels (PRK-1; all three cell lines (LNCaP, PC3, DU145), 1000 nM): increased
